{"source": "paper PMC7253571", "about": "“Cucurbitane-Type Triterpene Glycosides from Momordica charantia and Their α-Glucosidase Inhibitory Activities” (Natural Products and Bioprospecting, 2020)"}
{"molecular_target": "α-glucosidase", "assay": "α-glucosidase inhibition assay (PNPG substrate, absorbance at 405 nm)", "type": "biochemical", "details": "substrate PNPG 2.5 mM, enzyme 1.0 U/mL, PPBS pH 6.86, 37 °C, triplicate; read-out: α-Glucosidase inhibitory activity IC50", "method": "UV spectra were recorded on a UV-2401PC spectrometer (Shimadzu, Kyoto, Japan). Optical rotations were measured in methanol on JASCO P-1020 digital polarimeter (Jasco, Tokyo, Japan). IR spectra were scanned on a Bruker Tensor-27 Fourier transform infrared spectrometer with KBr pellets (Bruker, German). High-resolution (HR) ESI mass spectra data were measured on a Waters API QSTAR Pulsar spectrometer. 1D and 2D NMR spectra were obtained in pyridine-d5 on Bruker Ascend-400, 600 and 800 MHz NMR spectrometers with tetramethylsilane (TMS) as internal standard (Bruker, Zurich, Switzerland). Column chromatography (CC) was performed on macroporous resin (D-101, Tianjin, China), Lichroprep RP-18 (Merck, German), sephadex LH-20 (Pharmacia, USA), silica gel (200–300 mesh, Qingdao, China), and Semi-preparative HPLC was performed on an Agilent 1260 liquid chromatography system equipped with a ZORBAX SB-C18 column (5 μm, 9.4 × 250 mm, 3.0 mL/min) and a DAD detector. Fractions were detected by TLC, and spots were visualized by spraying with 10% H2SO4 in EtOH, followed by heating. α-glucosidase inhibitory activity was evaluated on the basis of the ability of the compounds to decrease glucosidase activity and then inhibit the breaking of glycosidic bonds in p-nitrophenyl-α-D-glucopyranoside (PNPG). Water was purchased from wahaha group co. LTD. Acetonitrile (chromatographic grade) was purchased from OCEANPAK (Sweden). Common organic solvents are industrial grade, used after re-distillation. PNPG was obtained from Sigma Chemical Co. (St. Louis, Mo, USA). α-glucosidase was purchased from Shanghai yuanye biotechnology Co., Ltd. Potassium phosphate buffer solution (PPBS) was obtained from Shanghai Yidian Scientific Instrument Co., Ltd. 96-well plates was purchased from Nest biotechnology co., LTD.\nThe α-glucosidase inhibition assay was performed according to the method adapted from the literature with slight modifications. α-glucosidase can cut glycosidic bonds in the PNPG to produce 4-nitrophenol (yellow), then measured its absorbance can determine the activity of enzyme. The test samples and ursolic acid (positive control) were dissolved in dimethylsulfoxide (DMSO), and then diluted with PPBS (pH 6.86) to the required concentration. The α-glucosidase (1.0 U/mL) and substrate (PNPG, 2.5 mM) were dissolved in PPBS. Sample wells included 60 μL of PPBS, 10 μL of test substances, 30 μL of enzyme stock solution, and incubated at 37 °C for 10 min. After the pre-incubation phase, 40 μL of PNPG solution was added and the mixture was incubated for another 20 min at 37 °C. Finally, 80 μL Na2CO3 (0.2 M) solution was added to the sample wells to stop the reaction. The absorbance of the reaction mixture was recorded at 405 nm using a microplate reader. All samples were measured in triplicate. The inhibition rate (%) was calculated by the following formula: Inhibition (%) = [1 − (Asample/Acontrol)] × 100.", "units": {"IC50": "µM"}}
{"smiles": "COC(C=C(C)C)CC(C)C1CCC2(C)C3C=CC45OC(OC)C3(CCC12C)C4CCC(OC1OC(CO)C(O)C(O)C1O)C5(C)C", "note": "[Compound 1, (19S,23R)-5β,19-epoxy-19,23-dimethoxycucurbita-6,24-dien-3β-ol 3-O-β-D-allopyranoside]", "IC50": "> 100"}
{"smiles": "COC(C=C(C)C)CC(C)C1CCC2(C)C3C=CC45OC(OC)C3(CCC12C)C4CCC(OC1OC(CO)C(O)C(O)C1O)C5(C)C", "note": "[Compound 2, (19S,23R)-5β,19-epoxy-19,23-dimethoxycucurbita-6,24-dien-3β-ol 3-O-β-D-glucopyranoside]", "IC50": "63.3 ± 3.04"}
{"smiles": "CO[C@H]1O[C@]23C=C[C@@H]4[C@@]1(CC[C@]1(C)[C@@H]([C@H](C)C[C@@H](C=C(C)C)OC)CC[C@@]41C)C2CC[C@H](O[C@@H]1O[C@H](CO)[C@@H](O)[C@@H](O)[C@H]1O)C3(C)C", "note": "(stereo partly drawn) [Compound 3, (19S,23S)-5β,19-epoxy-19,23-dimethoxycucurbita-6,24-dien-3β-ol 3-O-β-D-allopyranoside]", "IC50": "> 100"}
{"smiles": "CC(C)=CC=CC(C)C1CCC2(C)C3C=CC45OCC3(CCC12C)C4CCC(OC1OC(CO)C(O)C(O)C1O)C5(C)C", "note": "[Compound 4, 5β,19-epoxy-cucurbita-6,22E,24-trien-3β-ol 3-O-β-D-allopyranoside]", "IC50": "> 100"}
{"smiles": "COC1OC23C=CC4C1(CCC1(C)C(C(C)CC=CC(C)(C)O)CCC41C)C2CCC(OC1OC(CO)C(O)C(O)C1O)C3(C)C", "note": "[Compound 5, 19(S)-methoxy-5β,19-epoxycucurbita-6,23-dien-3β,25-diol 3-O-β-D-glucopyranoside]", "IC50": "59.1 ± 4.67"}
{"smiles": "C=C(C)/C=C/C[C@@H](C)[C@H]1CC[C@@]2(C)[C@@H]3C=C[C@@]45O[C@@H](OC)[C@]3(CC[C@]12C)C4CC[C@H](O[C@@H]1O[C@H](CO)[C@@H](O)[C@@H](O)[C@H]1O)C5(C)C", "note": "(stereo partly drawn) [Compound 6, (19R,23E)-5β,19-epoxy-19-methoxycucurbita-6,23,25-trien-3β-ol 3-O-β-D-allopyranoside]", "IC50": "> 100"}
{"smiles": "C=C(C)/C=C/C[C@@H](C)[C@H]1CC[C@@]2(C)[C@@H]3C=C[C@@]45O[C@@H](OC)[C@]3(CC[C@]12C)[C@@H]4CC[C@H](O[C@@H]1O[C@H](CO)[C@@H](O)[C@H](O)[C@H]1O)C5(C)C", "note": "[Compound 7, charantoside I]", "IC50": "35.1 ± 4.15"}
{"smiles": "C=C(C)/C=C/C[C@@H](C)[C@H]1CC[C@@]2(C)[C@@H]3C=C[C@@]45OC[C@]3(CC[C@]12C)[C@@H]4CC[C@H](O[C@@H]1O[C@H](CO)[C@@H](O)[C@H](O)[C@H]1O)C5(C)C", "note": "[Compound 8, charantoside III]", "IC50": "36.4 ± 3.03"}
{"smiles": "COC(C)(C)/C=C/C[C@@H](C)[C@H]1CC[C@@]2(C)[C@@H]3[C@@H](O[C@@H]4O[C@H](CO)[C@@H](O)[C@H](O)[C@H]4O)C=C4C(CC[C@H](O)C4(C)C)[C@]3(C=O)CC[C@]12C", "note": "(stereo partly shown) [Compound 9, momordicoside K]", "IC50": "28.4 ± 2.08"}
{"smiles": "CO[C@H]1C=C2C(CC[C@H](O[C@@H]3O[C@H](CO)[C@@H](O)[C@@H](O)[C@H]3O)C2(C)C)[C@]2(C=O)CC[C@]3(C)[C@@H]([C@H](C)C/C=C/C(C)(C)OC)CC[C@@]3(C)[C@H]12", "note": "(stereo partly drawn) [Compound 10, 7β,25-dimethoxycucurbita-5(6),23(E)-dien-19-al 3-O-β-D-allopyranoside]", "IC50": "> 100"}
